Experimental data published in US5427766A, “Radiolabeled steroids for use in radiochemical-guided surgery” (priority 1993, dated 1995).

Legend:
[1] = In vivo localization (biodistribution) in athymic female nude mice bearing intraperitoneal MCF-7 tumors; parameters: species or system athymic female NCR-Nu Mice; conditions: mouse, in vivo, ip; for tissue uptake: 10-12 hours
Description: (§1) In vivo localization of 11β-ethyl-17α-(Z)-[^125 I](iodovinyl)estra-3,17β-diol (5) and a control compound 16α-[^125 I]iodovinyl-3,17β-estradiol (commercially available from DuPont New England Nuclear, MA) was determined in athymic female NCR-Nu Mice (purchased from Simonsen Laboratories, Gilroy, Calif.) bearing subcutaneous MCF-7(ER+) breast tumor xenografts. Prior to injection of the compounds, the mice were each implanted with fragments of MCF-7 breast tumor (approximately 2 cubic millimeters) in the subcutis of the left flank. At approximately the same time, a 1.7 mg estradiol pellet (Innovative Research of America, Toledo, Ohio) was implanted in the scapular region. The tumors were allowed to grow until they reached between 50 and 200 mg by visual inspection (approximately four to five weeks) prior to injection of the test compounds. One day prior to injection of the test compounds, the estradiol pellet was removed.
(§2) The mice were each injected via tail vein with between 3 (1.1×10^5 Bq) and 6 μCi ([…]) ^125 I in approximately 50 μL of phosphate buffered saline. The mice were sacrificed at various time intervals. After exsanguination, the selected organ/tissue were excised, weighed and radioactivity measured in a gamma counter. The counts per minute (cpm) of 125I in each tissue was determined and expressed as cpm per gram of tissue per injected dose multiplied by 100 (percent injected dose/gram).
The procedure of Example 3 was followed except each mouse was inoculated intraperitoneally with MCF-7 breast carcinoma cell line (7.5×10^6 cell/50 μL) rather than implanted subcutaneously with MCF-7 breast tumor. One day prior to this procedure, a 1.7 mg estradiol pellet was implanted subcutaneously in the scapular region. The tumor cells were allowed to form solid tumor nodules for 4 to 6 weeks prior to injection of the test compounds.

[2] = In vivo localization (biodistribution) in athymic female nude mice bearing subcutaneous MCF-7 tumor xenografts; parameters: species or system athymic female NCR-Nu Mice; conditions: mouse, sc, tail vein, subcutaneous MCF-7, mean, n = 5; for tissue uptake: 10-12 hours
Description: as §1, §2

[3] = Percent Injected Dose/Gram, kidney
[4] = Percent Injected Dose/Gram, liver
[5] = Percent Injected Dose/Gram, muscle
[6] = Percent Injected Dose/Gram, spleen
[7] = Percent Injected Dose/Gram, tumor
[8] = mcf-7 tumor, Tumor, read-out: Percent Injected Dose/Gram, tumor
[9] = Blood, read-out: Percent Injected Dose/Gram, blood
[10] = Fat, read-out: Percent Injected Dose/Gram, fat
[11] = Kidney, read-out: Percent Injected Dose/Gram, kidney
[12] = Liver, read-out: Percent Injected Dose/Gram, liver
[13] = Muscle, read-out: Percent Injected Dose/Gram, muscle
[14] = Spleen, read-out: Percent Injected Dose/Gram, spleen
[15] = uterus, Uteri, read-out: Percent Injected Dose/Gram, uteri

Work on `CC[C@H]1C[C@@]2(C)[C@@H](CC[C@@]2(O)/C=C\[125I])[C@@H]2CCc3cc(O)ccc3[C@@H]12` [Compound 5, 11β-ethyl-17α-(Z)-[^125 I](iodovinyl)estra-3,17β-diol] yielded a tissue uptake ([1]; Blood, tail vein, intraperitoneal MCF-7, mean, n = 5, read-out: Percent Injected Dose/Gram, blood) of 0.61 %ID/g, a tissue uptake at 2 h ([1]; Blood, 2 hours, tail vein, intraperitoneal MCF-7, mean, n = 5, read-out: Percent Injected Dose/Gram, blood) of 2.07 %ID/g and a tissue uptake at 6 h ([1]; Blood, 6 hours, tail vein, intraperitoneal MCF-7, mean, n = 5, read-out: Percent Injected Dose/Gram, blood) of 0.88 %ID/g. The tissue uptake ([1]; Fat, tail vein, intraperitoneal MCF-7, mean, n = 5, read-out: Percent Injected Dose/Gram, fat) was 0.67 %ID/g, the tissue uptake at 2 h ([1]; Fat, 2 hours, tail vein, intraperitoneal MCF-7, mean, n = 5, read-out: Percent Injected Dose/Gram, fat) was 3.1 %ID/g and the tissue uptake at 6 h ([1]; Fat, 6 hours, tail vein, intraperitoneal MCF-7, mean, n = 5, read-out: Percent Injected Dose/Gram, fat) was 1.64 %ID/g. It also gave a tissue uptake at 24 h ([1]; Fat, 24 hours, tail vein, intraperitoneal MCF-7, mean, n = 5, read-out: Percent Injected Dose/Gram, fat) of 0.12 %ID/g, a tissue uptake at 2 h [1, 3] of 2.08 %ID/g and a tissue uptake at 6 h [1, 3] of 0.78 %ID/g. It also gave a tissue uptake at 24 h [1, 3] of 0.13 %ID/g, a tissue uptake at 48 h [1, 3] of 0.03 %ID/g and a tissue uptake at 2 h [1, 4] of 8.26 %ID/g. For the same molecule, the tissue uptake at 6 h [1, 4] was 4.08 %ID/g, the tissue uptake at 24 h [1, 4] was 1.14 %ID/g and the tissue uptake at 48 h [1, 4] was 0.44 %ID/g. The tissue uptake at 2 h [1, 5] was 0.69 %ID/g, the tissue uptake at 6 h [1, 5] was 0.31 %ID/g and the tissue uptake at 2 h [1, 6] was 1.72 %ID/g. The tissue uptake at 6 h [1, 6] was 0.86 %ID/g, the tissue uptake at 24 h [1, 6] was 0.16 %ID/g and the tissue uptake at 48 h [1, 6] was 0.06 %ID/g. It also gave a tissue uptake at 2 h [1, 7] of 2.33 %ID/g, a tissue uptake at 6 h [1, 7] of 1.6 %ID/g and a tissue uptake at 24 h [1, 7] of 1.07 %ID/g. For the same molecule, the tissue uptake at 48 h [1, 7] was 0.76 %ID/g, the tissue uptake ([1]; Uteri, tail vein, intraperitoneal MCF-7, mean, n = 5, read-out: Percent Injected Dose/Gram, uteri) was 3.95 %ID/g and the tissue uptake at 2 h ([1]; Uteri, 2 hours, tail vein, intraperitoneal MCF-7, mean, n = 5, read-out: Percent Injected Dose/Gram, uteri) was 6.47 %ID/g. It also gave a tissue uptake at 6 h ([1]; Uteri, 6 hours, tail vein, intraperitoneal MCF-7, mean, n = 5, read-out: Percent Injected Dose/Gram, uteri) of 4.43 %ID/g, a tissue uptake at 24 h ([1]; Uteri, 24 hours, tail vein, intraperitoneal MCF-7, mean, n = 5, read-out: Percent Injected Dose/Gram, uteri) of 3.35 %ID/g and a tissue uptake at 48 h ([1]; Uteri, 48 hours, tail vein, intraperitoneal MCF-7, mean, n = 5, read-out: Percent Injected Dose/Gram, uteri) of 1.62 %ID/g. The tissue uptake [2, 8] was 0.83 %ID/g, the tissue uptake at 2 h [2, 8] was 1.15 %ID/g and the tissue uptake at 6 h [2, 8] was 1.1 %ID/g. For the same molecule, the tissue uptake at 24 h [2, 8] was 0.55 %ID/g, the tissue uptake at 48 h [2, 8] was 0.36 %ID/g and the tissue uptake [2, 9] was 0.37 %ID/g. For the same molecule, the tissue uptake at 2 h [2, 9] was 1.11 %ID/g, the tissue uptake at 6 h [2, 9] was 1.06 %ID/g and the tissue uptake at 24 h [2, 9] was 0.09 %ID/g. The tissue uptake at 48 h [2, 9] was 0.03 %ID/g, the tissue uptake [2, 10] was 0.82 %ID/g and the tissue uptake at 2 h [2, 10] was 2.18 %ID/g. For the same molecule, the tissue uptake at 6 h [2, 10] was 1.72 %ID/g, the tissue uptake at 24 h [2, 10] was 0.14 %ID/g and the tissue uptake [2, 11] was 0.45 %ID/g. The tissue uptake at 2 h [2, 11] was 1.24 %ID/g, the tissue uptake at 6 h [2, 11] was 1.01 %ID/g and the tissue uptake at 24 h [2, 11] was 0.1 %ID/g. It also gave a tissue uptake at 48 h [2, 11] of 0.02 %ID/g, a tissue uptake [2, 12] of 2.39 %ID/g and a tissue uptake at 2 h [2, 12] of 5.61 %ID/g. The tissue uptake at 6 h [2, 12] was 5.34 %ID/g, the tissue uptake at 24 h [2, 12] was 0.87 %ID/g and the tissue uptake at 48 h [2, 12] was 0.36 %ID/g. The tissue uptake [2, 13] was 0.09 %ID/g, the tissue uptake at 2 h [2, 13] was 0.56 %ID/g and the tissue uptake at 6 h [2, 13] was 0.33 %ID/g. For the same molecule, the tissue uptake [2, 14] was 0.54 %ID/g, the tissue uptake at 2 h [2, 14] was 1.26 %ID/g and the tissue uptake at 6 h [2, 14] was 0.97 %ID/g. For the same molecule, the tissue uptake at 24 h [2, 14] was 0.18 %ID/g, the tissue uptake at 48 h [2, 14] was 0.06 %ID/g and the tissue uptake [2, 15] was 3.66 %ID/g. It also gave a tissue uptake at 2 h [2, 15] of 4.66 %ID/g, a tissue uptake at 6 h [2, 15] of 4.4 %ID/g and a tissue uptake at 24 h [2, 15] of 1.95 %ID/g. For the same molecule, the tissue uptake at 48 h [2, 15] was 1.26 %ID/g.
